From US20210045385A1, “PYRIDAZINONE-SUBSTITUTED KETOXIMES AS HERBICIDES” (FMC Corporation, priority 2018, published 2021)

Assays:
Format in all cases: in vivo
[1] = tested on: sedge, umbrella (small-flower umbrella sedge, Cyperus difformis); experiment: Test B flooded paddy test, visual plant response rating; conditions: 250 g ai/ha, Flood, applied to paddy water, 2-leaf stage, evaluated after 13 to 15 days
In short: (§1)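 Visual scores compare treated plants with controls after 13 to 15 days of greenhouse growth. Treatment was made into paddy water standing 3 cm above the soil, with plants at the 2-leaf stage and flooding maintained throughout.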

[2] = tested on: rice (Oryza sativa); experiment: as above; conditions: 250 g ai/ha, Flood, applied to paddy water, 2-leaf stage, evaluated after 13 to 15 days
In short: as §1

[3] = tested on: barnyardgrass (Echinochloa crus-galli); experiment: as above; conditions: 250 g ai/ha, Flood, applied to paddy water, 2-leaf stage, evaluated after 13 to 15 days
In short: as §1

[4] = tested on: ducksalad (Heteranhera limosa); experiment: as above; conditions: 250 g ai/ha, Flood, applied to paddy water, 2-leaf stage, evaluated after 13 to 15 days
In short: as §1

[5] = tested on: ragweed (common ragweed, Ambrosia elatior); experiment: Test A postemergence, visual plant response rating; conditions: for Ragweed plant response rating (0 to 100 scale): 500 g ai/ha, postemergence, 0 is no effect, 100 is complete control; for Ragweed plant response rating: Postemergence, 125 g ai/ha, 0 to 100 scale (0 no effect, 100 complete control)
In short: (§2)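 Compared with untreated controls, treated plants received a visual injury score on a 0–100 scale around 10 days after application. The compound, in a non-phytotoxic solvent with surfactant, was given as a preemergence soil spray or postemergence at the one- to two-leaf stage.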

[6] = tested on: galium (catchweed bedstraw, Galium aparine); experiment: Test A postemergence, visual plant response rating; conditions: for Galium plant response rating (0 to 100 scale): 500 g ai/ha, postemergence, 0 is no effect, 100 is complete control; for Galium plant response rating: Postemergence, 125 g ai/ha, 0 to 100 scale (0 no effect, 100 complete control)
In short: as §2

[7] = tested on: Italian ryegrass (Lolium multiflorum); experiment: Test A postemergence, visual plant response rating; conditions: for Ryegrass, Italian plant response rating (0 to 100 scale): 500 g ai/ha, postemergence, 0 is no effect, 100 is complete control; for Ryegrass, Italian plant response rating: Postemergence, 125 g ai/ha, 0 to 100 scale (0 no effect, 100 complete control)
In short: as §2

[8] = tested on: corn (Zea mays); experiment: Test A postemergence, visual plant response rating; conditions: for Corn plant response rating (0 to 100 scale): 500 g ai/ha, postemergence, 0 is no effect, 100 is complete control; for Corn plant response rating: Postemergence, 125 g ai/ha, 0 to 100 scale (0 no effect, 100 complete control)
In short: as §2

[9] = tested on: pigweed (Amaranthus retroflexus); experiment: Test A postemergence, visual plant response rating; conditions: for Pigweed plant response rating (0 to 100 scale): 500 g ai/ha, postemergence, 0 is no effect, 100 is complete control; for Pigweed plant response rating: Postemergence, 125 g ai/ha, 0 to 100 scale (0 no effect, 100 complete control)
In short: as §2

[10] = tested on: blackgrass (Alopecurus myosuroides); experiment: Test A postemergence, visual plant response rating; conditions: for Blackgrass plant response rating (0 to 100 scale): 500 g ai/ha, postemergence, 0 is no effect, 100 is complete control; for Blackgrass plant response rating: Postemergence, 125 g ai/ha, 0 to 100 scale (0 no effect, 100 complete control)
In short: as §2

[11] = tested on: barnyardgrass (Echinochloa crus-galli); experiment: Test A postemergence, visual plant response rating; conditions: for Barnyardgrass plant response rating (0 to 100 scale): 500 g ai/ha, postemergence, 0 is no effect, 100 is complete control; for Barnyardgrass plant response rating: Postemergence, 125 g ai/ha, 0 to 100 scale (0 no effect, 100 complete control)
In short: as §2

[12] = tested on: foxtail, giant (giant foxtail, Setaria faberii); experiment: Test A postemergence, visual plant response rating; conditions: for Foxtail, Giant plant response rating (0 to 100 scale): 500 g ai/ha, postemergence, 0 is no effect, 100 is complete control; for Foxtail, Giant plant response rating: Postemergence, 125 g ai/ha, 0 to 100 scale (0 no effect, 100 complete control)
In short: as §2

[13] = tested on: wheat (Triticum aestivum); experiment: Test A postemergence, visual plant response rating; conditions: for Wheat plant response rating (0 to 100 scale): 500 g ai/ha, postemergence, 0 is no effect, 100 is complete control; for Wheat plant response rating: Postemergence, 125 g ai/ha, 0 to 100 scale (0 no effect, 100 complete control)
In short: as §2

[14] = tested on: kochia (Kochia scoparia); experiment: Test A postemergence, visual plant response rating; conditions: for Kochia plant response rating (0 to 100 scale): 500 g ai/ha, postemergence, 0 is no effect, 100 is complete control; for Kochia plant response rating: Postemergence, 125 g ai/ha, 0 to 100 scale (0 no effect, 100 complete control)
In short: as §2

[15] = tested on: ragweed (common ragweed, Ambrosia elatior); experiment: Test A preemergence, visual plant response rating; conditions: for Ragweed plant response rating: 125 g ai/ha, preemergence, 0 to 100 scale, 0 no effect, 100 complete control; for Ragweed plant response rating (0 to 100 scale): 500 g ai/ha Preemergence, approx. 10 days
In short: as §2

[16] = tested on: Italian ryegrass (Lolium multiflorum); experiment: Test A preemergence, visual plant response rating; conditions: for Ryegrass, Italian plant response rating: 125 g ai/ha, preemergence, 0 to 100 scale, 0 no effect, 100 complete control; for Ryegrass, Italian plant response rating (0 to 100 scale): 500 g ai/ha Preemergence, approx. 10 days
In short: as §2

[17] = tested on: pigweed (Amaranthus retroflexus); experiment: Test A preemergence, visual plant response rating; conditions: for Pigweed plant response rating: 125 g ai/ha, preemergence, 0 to 100 scale, 0 no effect, 100 complete control; for Pigweed plant response rating (0 to 100 scale): 500 g ai/ha Preemergence, approx. 10 days
In short: as §2

[18] = tested on: barnyardgrass (Echinochloa crus-galli); experiment: Test A preemergence, visual plant response rating; conditions: for Barnyardgrass plant response rating: 125 g ai/ha, preemergence, 0 to 100 scale, 0 no effect, 100 complete control; for Barnyardgrass plant response rating (0 to 100 scale): 500 g ai/ha Preemergence, approx. 10 days
In short: as §2

[19] = tested on: foxtail, giant (giant foxtail, Setaria faberii); experiment: Test A preemergence, visual plant response rating; conditions: for Foxtail, Giant plant response rating: 125 g ai/ha, preemergence, 0 to 100 scale, 0 no effect, 100 complete control; for Foxtail, Giant plant response rating (0 to 100 scale): 500 g ai/ha Preemergence, approx. 10 days
In short: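 Ratings 0–100 (100 = complete control), visual, vs untreated controls at ~10 days. Application pre- or postemergence; solvent mixture with surfactant; loam/sand medium.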

[20] = tested on: kochia (Kochia scoparia); experiment: Test A preemergence, visual plant response rating; conditions: for Kochia plant response rating: 125 g ai/ha, preemergence, 0 to 100 scale, 0 no effect, 100 complete control; for Kochia plant response rating (0 to 100 scale): 500 g ai/ha Preemergence, approx. 10 days
In short: as §2

CO/N=C(/c1ccsc1C)c1c(O)c(C)nn(C)c1=O [Compound 135]
0: Plant response rating, Sedge, Umbrella (0 to 100 scale, 0 is no effect, 100 is complete control) [1] | Plant response rating, Rice (0 to 100 scale, 0 is no effect, 100 is complete control) [2] | Plant response rating, Barnyardgrass (0 to 100 scale, 0 is no effect, 100 is complete control) [3] | Plant response rating, Ducksalad (0 to 100 scale, 0 is no effect, 100 is complete control) [4] | Ragweed plant response rating [5] | Ryegrass, Italian plant response rating [7] | Corn plant response rating (0 to 100 scale) [8] | Corn plant response rating [8] | Blackgrass plant response rating (0 to 100 scale) [10] | Blackgrass plant response rating [10] | Barnyardgrass plant response rating (0 to 100 scale) [11] | Barnyardgrass plant response rating [11] | Foxtail, Giant plant response rating (0 to 100 scale) [12] | Foxtail, Giant plant response rating [12] | Wheat plant response rating (0 to 100 scale) [13] | Wheat plant response rating [13] | Kochia plant response rating [14] | Ragweed plant response rating [15] | Ryegrass, Italian plant response rating [16] | Ryegrass, Italian plant response rating (0 to 100 scale) [16] | Pigweed plant response rating [17] | Barnyardgrass plant response rating [18] | Barnyardgrass plant response rating (0 to 100 scale) [18] | Foxtail, Giant plant response rating [19] | Foxtail, Giant plant response rating (0 to 100 scale) [19] | Kochia plant response rating [20]
40: Galium plant response rating (0 to 100 scale) [6]
10: Kochia plant response rating (0 to 100 scale) [14] | Ragweed plant response rating (0 to 100 scale) [15] | Kochia plant response rating (0 to 100 scale) [20]
30: Galium plant response rating [6] | Ryegrass, Italian plant response rating (0 to 100 scale) [7] | Pigweed plant response rating (0 to 100 scale) [9]
20: Ragweed plant response rating (0 to 100 scale) [5] | Pigweed plant response rating [9] | Pigweed plant response rating (0 to 100 scale) [17]

CON=C(c1ccccc1C1CC1)c1c(O)c(C)nn(C)c1=O [Compound 104]
50: Ragweed plant response rating [15]
20: Kochia plant response rating [20]
100: Galium plant response rating (0 to 100 scale) [6] | Ryegrass, Italian plant response rating (0 to 100 scale) [7] | Ryegrass, Italian plant response rating (0 to 100 scale) [16] | Foxtail, Giant plant response rating (0 to 100 scale) [19]
60: Barnyardgrass plant response rating [18]
40: Barnyardgrass plant response rating [11] | Wheat plant response rating [13]
80: Ragweed plant response rating [5] | Blackgrass plant response rating [10] | Barnyardgrass plant response rating (0 to 100 scale) [11] | Foxtail, Giant plant response rating (0 to 100 scale) [12] | Wheat plant response rating (0 to 100 scale) [13] | Kochia plant response rating (0 to 100 scale) [14] | Ragweed plant response rating (0 to 100 scale) [15] | Barnyardgrass plant response rating (0 to 100 scale) [18] | Foxtail, Giant plant response rating [19]
0: Plant response rating, Sedge, Umbrella (0 to 100 scale, 0 is no effect, 100 is complete control) [1] | Plant response rating, Rice (0 to 100 scale, 0 is no effect, 100 is complete control) [2] | Plant response rating, Barnyardgrass (0 to 100 scale, 0 is no effect, 100 is complete control) [3] | Plant response rating, Ducksalad (0 to 100 scale, 0 is no effect, 100 is complete control) [4]
90: Ragweed plant response rating (0 to 100 scale) [5] | Galium plant response rating [6] | Ryegrass, Italian plant response rating [7] | Pigweed plant response rating (0 to 100 scale) [9] | Blackgrass plant response rating (0 to 100 scale) [10] | Ryegrass, Italian plant response rating [16]
70: Pigweed plant response rating [9] | Foxtail, Giant plant response rating [12] | Kochia plant response rating [14] | Pigweed plant response rating [17] | Pigweed plant response rating (0 to 100 scale) [17] | Kochia plant response rating (0 to 100 scale) [20]
30: Corn plant response rating (0 to 100 scale) [8] | Corn plant response rating [8]

CON=C(c1ccccc1C1CC1)c1c(O)c(C)nn(C)c1=O [Compound 105]
70: Pigweed plant response rating (0 to 100 scale) [9] | Foxtail, Giant plant response rating [12] | Kochia plant response rating [14] | Pigweed plant response rating [17] | Pigweed plant response rating (0 to 100 scale) [17] | Kochia plant response rating (0 to 100 scale) [20]
100: Ryegrass, Italian plant response rating (0 to 100 scale) [16]
90: Ragweed plant response rating (0 to 100 scale) [5] | Ragweed plant response rating [5] | Galium plant response rating (0 to 100 scale) [6] | Galium plant response rating [6] | Ryegrass, Italian plant response rating (0 to 100 scale) [7] | Ryegrass, Italian plant response rating [7] | Blackgrass plant response rating (0 to 100 scale) [10] | Ryegrass, Italian plant response rating [16] | Foxtail, Giant plant response rating (0 to 100 scale) [19]
80: Blackgrass plant response rating [10] | Barnyardgrass plant response rating (0 to 100 scale) [11] | Foxtail, Giant plant response rating (0 to 100 scale) [12] | Wheat plant response rating (0 to 100 scale) [13] | Kochia plant response rating (0 to 100 scale) [14] | Barnyardgrass plant response rating (0 to 100 scale) [18]
40: Barnyardgrass plant response rating [11]
50: Ragweed plant response rating [15]
0: Plant response rating, Sedge, Umbrella (0 to 100 scale, 0 is no effect, 100 is complete control) [1] | Plant response rating, Rice (0 to 100 scale, 0 is no effect, 100 is complete control) [2] | Plant response rating, Barnyardgrass (0 to 100 scale, 0 is no effect, 100 is complete control) [3] | Plant response rating, Ducksalad (0 to 100 scale, 0 is no effect, 100 is complete control) [4]
10: Corn plant response rating [8] | Kochia plant response rating [20]
60: Pigweed plant response rating [9] | Wheat plant response rating [13] | Ragweed plant response rating (0 to 100 scale) [15] | Barnyardgrass plant response rating [18] | Foxtail, Giant plant response rating [19]
30: Corn plant response rating (0 to 100 scale) [8]
